The subject of series [1] is GLUT4 (glucose transporter type 4). The series can be described thus: Promotion of GLUT4 membrane translocation in L6-GLUT4myc. In kind it is cell-based, rat. The conditions noted are these: HPH-15 10 μM (1/200th of metformin 2 mM; insulin 100 nM), 24 hours. As for the experimental part: GLUT4 (glucose transporter type 4) is involved in the uptake of glucose into cells. Thus, the relationship between HPH-15 and the membrane translocation of GLUT4 was examined using the myotube cell model L6-GLUT4myc.
The myotube cell model L6-GLUT4myc cells used in Example 1 were seeded onto a 24-well plate (1×10^5 cells/well, […] of culture liquid) and cultured overnight. Then, a DMSO solution (1%) containing HPH-15 (final concentration: 10 μM), metformin (final concentration: 2 mM), or insulin (final concentration: 100 nM) was added to the medium, and the cells were further cultured for 24 hours. As a control, only DMSO solution (1%) was added, and the cells were cultured for 24 hours in the same manner. Next, each cell was fixed for 20 minutes with a 3% paraformaldehyde solution (Tokyo Chemical Industry Co., Ltd.). The reaction was stopped with an 1% glycine solution (Merck KGaA), and blocking was performed for 15 minutes using a PBS solution containing 5% goat serum (FUJIFILM Wako Pure Chemical Corp.). […] Detection was performed using OPD reagent (o-phenylenediamine dihydrochloride: FUJIFILM Wako Pure Chemical Corp.), and the amount of GLUT4 was evaluated by measuring absorbance (492 nm).

In series [2] the test system is high-fat diet-induced obesity model mice. Kind of series: Blood glucose lowering effect in mouse. In kind it is in vivo. The conditions noted are these: HPH-15 10 mg/kg or 100 mg/kg orally once a day for 28 days, compared with metformin 300 mg/kg. The protocol: In Example 7, mice were used instead of the cells, which were used up to Example 6, to examine the blood glucose lowering effect of HPH-15.
Four-week-old […] mice (CLEA Japan, Inc.) were fed a high-fat diet HFD (CLEA Japan, Inc.) for two months to prepare high-fat diet-induced obesity model mice. Then, HPH-15 (10 mg/kg or 100 mg/kg, […]) dissolved in olive oil (Kenei Pharmaceutical Co., Ltd.) or metformin (300 mg/kg, […]) was orally administered once a day for 28 days. Olive oil alone was administered as a control. Body weight, random blood glucose levels, and fasting blood glucose levels were measured every 7 days using a blood glucose meter Glutest Aqua (Sanwa Kagaku Kenkyusho Co., Ltd.). Fasting blood glucose levels were measured after 12-hour fasting. Note that, during the drug administration period, the mice were fed the high-fat diet HFD. The results of random blood glucose levels (mg/dl) are shown in FIG. 7A, and the results of fasting blood glucose levels (mg/dl) are shown in FIG. 7B.

Series [3] has the same test system. The series can be described thus: Glucose loading test in mouse. The conditions noted are these: HPH-15 10 mg/kg or 100 mg/kg orally, 28 days; glucose 0.5 g/kg intraperitoneally; compared to olive oil. In kind it is in vivo. The protocol:
The effect of HPH-15 on the change in blood glucose levels in the presence of glucose was examined using mice.
(§1) High-fat diet-induced obesity model mice were prepared in the same manner as in Example 7. Then, HPH-15 (10 mg/kg or 100 mg/kg, […]) dissolved in olive oil or metformin (300 mg/kg, […]) was orally administered once a day for 28 days. Olive oil alone was administered as a control. After 28 days of administration of each, glucose was intraperitoneally administered (0.5 g/kg) to the high-fat diet-induced obesity model mice, and blood glucose levels (mg/dl) were measured at 0, 15, 30, 60, 90, and 120 minutes after administration using a blood glucose meter Glutest Aqua (Sanwa Kagaku Kenkyusho Co., Ltd.).

For series [4] the test system is unchanged. Kind of series: Pyruvic acid loading test in mouse. The conditions noted are these: HPH-15 10 mg/kg or 100 mg/kg orally, 28 days; pyruvic acid 2 g/kg intraperitoneally; compared to olive oil. It counts as in vivo. The protocol: The effect of HPH-15 on the changes in blood glucose levels in the presence of pyruvic acid involving in gluconeogenesis was examined using mice.
as §1, with “each, pyruvic acid” for “each, glucose”, “administered (2” for “administered (0.5”

The test system is the same in series [5]. The series can be described thus: Organ weight in mouse. It counts as in vivo. The conditions noted are these: HPH-15 100 mg/kg orally once a day 28 days; compared to olive oil. The protocol: The changes in organ weights when HPH-15 was administered were examined.
High-fat diet-induced obesity model mice were prepared in the same manner as in Example 7. Then, HPH-15 (10 mg/kg or 100 mg/kg, […]) dissolved in olive oil or metformin (300 mg/kg, […]) was orally administered once a day for 28 days. Olive oil alone was administered as a control. After 28 days of administration of each, the liver, muscle, subcutaneous fat, and epididymis of the high-fat diet-induced obesity model mice were excised and weighed.

Series [6] shares this test system. Kind of series: Blood test value in mouse. In kind it is in vivo. The following applies: HPH-15 10 or 100 mg/kg orally 28 days. As for the experimental part: High-fat diet-induced obesity model mice were prepared in the same manner as in Example 7. Then, […] of olive oil (Kenei Pharmaceutical Co., Ltd.) as a solvent, HPH-15 (10 mg/kg or 100 mg/kg, […]) dissolved in olive oil, or metformin (300 mg/kg, […]) was orally administered once a day for 28 days. After administration of each for 28 days, the blood from the high-fat diet-induced obesity model mice was examined at the Kumamoto Mouse Clinic (Kumamoto National University Corp.).

Setting [7] is: compared with metformin 300 mg/kg.

In the case of `CC(C)(C)SCCNC(=S)c1cccc(C(=S)NCCSC(C)(C)C)n1` [HPH-15], the “amount of GLUT4 localized in the membrane” value in series [1] is “promoted membrane translocation of GLUT4 to the same extent as metformin or insulin”. The “fasting blood glucose levels” value in series [2] (12-hour fasting) is recorded as “had the effect of lowering”. In series [2], the “random blood glucose levels” value was “had the effect of lowering”. The “glucose metabolism (blood glucose levels, IAUC) after glucose loading” value in series [3] was “significantly improved”. In addition, the “blood glucose levels after pyruvic acid loading” value in series [4] is reported as “significantly lowered”. Moreover, the “reduction of subcutaneous fat weight” value in series [5] is “approximately 50%”. For the same compound, in series [6], the “toxicity (blood test)” value is given as “No toxicity was observed”. Also, the “other blood test items” value in series [6] (compared to olive oil) is reported as “no differences were observed”. In addition, in series [6] (setting [7]), the “ALT value (blood test)” value is “lower than that of metformin”, the “AST value (blood test)” value is given as “significantly lower than those of metformin” and the “LD value (blood test)” value is “significantly lower than those of metformin”.
